# Results published in patent US20060069032A1 (L'OREAL, priority 2003, published 2006).
# Experiments:
# [1] = test system: Transglutaminase 1 (TGK) messenger; assay: Transglutaminase I (TGK) messenger expression by quantitative RT-PCR in reconstructed epidermis SkinEthic; type: cell-based, human
# Protocol: (§1) The study was carried out on a model of reconstructed epidermis SkinEthic. Upon receiving, the epidermes were precultured for 24 hours in SkinEthic medium. The culture medium was then replaced with medium containing the test product (two epidermes per concentration tested), and then the epidermes were cultured for 24 hours at 37° C. and 5% CO2. A batch of 2 epidermes was not treated. The culture supernatants were then removed and the epidermes were rinsed with a PBS solution, cut and deposited in sterile RNA-free tubes in the presence of Tri-Reagent (Sigma T9424) and then immediately frozen at −80° C.
# (§2) The pairs of primers which were used in this study allow the amplification of the following specific fragments:
# (§3) The reverse transcription was carried out in the following manner: • extraction of the total RNA of each epidermis with the aid of Tri-Reagent according to the protocol recommended by the supplier, and then a new extraction with chloroform and precipitation with isopropanol. • removal of the traces of potentially contaminating DNA by treating with the DNA-free system (Ambion) • carrying out of the reaction of reverse transcription of the mRNA in the presence of the oligo(dT) primer and of the enzyme Superscript II (Gibco) • quantification, by fluorescence, of the synthesized cDNA and adjustment of the concentrations of 50 ng/ml.
# (§4) The PCR reactions (polymerase chain reactions) were carried out by quantitative PCR with the “Light cycler” system (Roche Molecular Systems Inc.) according to the procedures recommended by the supplier.
# (§5) The PCR conditions were the following: activation of 10 min at 95° C., PCR reactions (10 sec at 95° C., 5 sec at 64° C. and 35 sec at 72° C.) 40 cycles, fusion of 5 sec at 95° C. and then 5 sec at 60° C.
# (§6) The incorporation of fluorescence into the amplified DNA was measured continuously during the PCR cycles. This system makes it possible to obtain fluorescence measurement curves as a function of the PCR cycles and to thereby evaluate a relative expression value for each marker. The RE (relative expression) value is expressed in arbitrary units according to the following formula: (1/2^number of cycles)×10^6.
# (§7) The results were expressed relative to the quantity of actin messenger (reference gene) and are represented, per marker, in the following tables.
# [2] = test system: Calmodulin-like skin protein (CLSP) messenger; assay: Calmodulin-like skin protein (CLSP) messenger expression by quantitative RT-PCR in reconstructed epidermis SkinEthic; type: cell-based, human; settings: 0.01 μM, 24 hours
# Protocol: as §1, §2, §3, §4, §5, §6, §7
# [3] = test system: Loricrin (LORI) messenger; assay: Loricrin messenger expression by quantitative RT-PCR in reconstructed epidermis SkinEthic; type: cell-based, human
# Protocol: as §1, §2, §3, §4, §5, §6, §7
# epidermal keratinocyte = settings: Nissen J B et al, Exp. Dermatol. 1997; cited from earlier work
# [4] = 0.01 μM, 24 hours, control = 100
substance,measurement,setting,value
β-Endorphin [Beta-endorphin],RE*TGK (UA),"[1]; 0.01 μM, 24 hours",0.165 UA
same,RE*actin (UA),"[1]; 0.01 μM, 24 hours, reference gene, TGK table",1.11 UA
same,TGK/actin % control,[1]; [4],176%
same,expression of the TGK messenger (in words),[1]; at physiological concentration,"an effect of the same type, although slightly less pronounced"
same,CLSP/actin,[2],0.0961
same,RE*CLSP (UA),[2],0.1032 UA
same,RE*actin (UA),"[2]; reference gene, CLSP table",1.07 UA
same,CLSP/actin % control,[2]; control = 100,174%
same,LORI/actin,"[3]; 0.01 μM, 24 hours",10.2
same,RE*LORI (UA),"[3]; 0.01 μM, 24 hours",11.24 UA
same,RE*actin (UA),"[3]; 0.01 μM, 24 hours, reference gene, loricrin table",1.11 UA
same,LORI/actin % control,[3]; [4],179%
same,expression of the loricrin marker (in words),[3]; at physiological concentration,stimulate the expression
same,effect on epidermal proliferation and differentiation,epidermal keratinocyte,no effect
